Results: US8569292B2, “Cyclic inhibitors of 11β-hydroxysteroid dehydrogenase 1” (Vitae Pharmaceuticals, Inc., priority 2008, dated 2013)

Assays:
11β-HSD1 [1] = target: T1, 11β-HSD1 (Homo sapiens, UniProt P28845); assay: biochemical; conditions: for inhibition at 0.1 µM: read-out: Average % inhibition at 100 nM
CYP2C9 = target: T2, CYP2C9 (Homo sapiens, UniProt P11712); assay: Biological Test Example 9: CYP2C9 inhibition (Invitrogen kit, fluorogenic OOMR); type: in vitro ADME
T2 construct: purchased Invitrogen 2859; host or cells: insect cells infected with baculovirus (microsomes)

11β-HSD1 [2] = target: T1, 11β-HSD1; assay: Biological Test Example 4: microsomal 11β-HSD1 in the presence of 50% human plasma; conditions: for Shift: IC50 in Test Example 4 divided by IC50 in Test Example 1
[3] = Biological Test Example 1 IC50 (nM)
[4] = IC50 Range, Biological Test Example 1

T1 sequence (P28845 whole entry): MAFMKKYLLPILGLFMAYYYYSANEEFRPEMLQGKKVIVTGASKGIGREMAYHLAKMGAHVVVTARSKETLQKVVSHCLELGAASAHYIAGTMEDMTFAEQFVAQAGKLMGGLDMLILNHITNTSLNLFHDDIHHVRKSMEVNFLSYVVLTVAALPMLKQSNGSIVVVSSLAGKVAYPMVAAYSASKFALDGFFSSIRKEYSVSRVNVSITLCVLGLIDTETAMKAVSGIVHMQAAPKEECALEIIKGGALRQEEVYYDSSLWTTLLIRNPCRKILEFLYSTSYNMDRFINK
T2 sequence (P11712 whole entry): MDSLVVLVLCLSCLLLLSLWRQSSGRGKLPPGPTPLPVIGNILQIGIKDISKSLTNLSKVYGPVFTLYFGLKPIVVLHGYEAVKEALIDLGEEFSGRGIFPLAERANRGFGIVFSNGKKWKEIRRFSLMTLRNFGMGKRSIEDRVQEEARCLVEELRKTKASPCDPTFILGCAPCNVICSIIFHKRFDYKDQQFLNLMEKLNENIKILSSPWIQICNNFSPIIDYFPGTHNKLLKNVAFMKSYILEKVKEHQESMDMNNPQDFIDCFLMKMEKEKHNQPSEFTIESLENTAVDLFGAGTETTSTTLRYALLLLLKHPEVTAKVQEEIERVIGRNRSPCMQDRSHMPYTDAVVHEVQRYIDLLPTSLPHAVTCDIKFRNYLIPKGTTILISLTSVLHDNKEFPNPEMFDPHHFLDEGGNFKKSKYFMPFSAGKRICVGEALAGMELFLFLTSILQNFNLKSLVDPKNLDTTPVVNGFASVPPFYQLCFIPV

SMILES | IC50 (11β-HSD1 [1]; [3]) [nM] | IC50 (11β-HSD1 [1]; [4]) [nM] | inhibition at 0.1 µM (11β-HSD1 [1]) [%] | IC50 (CYP2C9) [nM] | IC50 (11β-HSD1 [2]) [nM] | Shift (11β-HSD1 [2])
C[C@@H](c1ccc(-c2ccnc(N)c2)cc1)N1CC[C@](CCCO)(c2ccccc2)OC1=O [EXAMPLE 125, (R)-3-((S)-1-(4-(2-aminopyridin-4-yl)phenyl)ethyl)-6-(3-hydroxypropyl)-6-phenyl-1,3-oxazinan-2-one] | 0.6 | < 100 | 98.6 | 4300 | 6.8 | 12.3
C[C@@H](c1ccc(-c2ccc(C(C)(C)O)nn2)cc1)N1CC[C@](CC(C)(C)O)(c2ccccc2)OC1=O [EXAMPLE 7, (S)-6-(2-hydroxy-2-methylpropyl)-3-((S)-1-(4-(6-(2-hydroxypropan-2-yl)pyridazin-3-yl)phenyl)ethyl)-6-phenyl-1,3-oxazinan-2-one] | 4.9 | < 100 | 93.3 | 5300 | 4.3 | 0.9
C=CC[C@]1(c2ccc(F)cc2)CCN([C@@H](C)c2ccc(-c3cncc(F)c3)cc2)C(=O)O1 [EXAMPLE 51, (R)-6-allyl-6-(4-fluorophenyl)-3-((S)-1-(4-(5-fluoropyridin-3-yl)phenyl)ethyl)-1,3-oxazinan-2-one] | 1.5 | < 100 | 96.1 | 700 | 60.7 | 40.6
C[C@@H](c1ccc(-c2ncccn2)cc1)N1CC[C@](CCCO)(c2ccc(F)cc2)OC1=O [EXAMPLE 113, (R)-6-(4-fluorophenyl)-6-(3-hydroxypropyl)-3-((S)-1-(4-(pyrimidin-2-yl)phenyl)ethyl)-1,3-oxazinan-2-one] | 7.4 | < 100 | 92.4 | 2900 | 22.8 | 3.1
C[C@@H](c1ccc(-c2ccc(C(N)=O)cn2)cc1)N1CC[C@](CCCO)(c2ccccc2)OC1=O [EXAMPLE 140, 6-(4-((S)-1-((R)-6-(3-hydroxypropyl)-2-oxo-6-phenyl-1,3-oxazinan-3-yl)ethyl)phenyl)nicotinamide] | 1.1 | < 100 | 98.7 | 20600 | 6.8 | 6.4
C[C@@H](c1ccc(-c2cc[nH]n2)cc1)N1CC[C@](CCCO)(c2ccccc2)OC1=O [EXAMPLE 45, (R)-3-((S)-1-(4-(1H-pyrazol-3-yl)phenyl)ethyl)-6-(3-hydroxypropyl)-6-phenyl-1,3-oxazinan-2-one] | 3 | < 100 | 96.7 | 9000 | 13.5 | 
COc1ccc(-c2ccc([C@H](C)N3CC[C@](CCCO)(c4ccc(F)cc4)OC3=O)cc2)cn1 [EXAMPLE 65, (R)-6-(4-fluorophenyl)-6-(3-hydroxypropyl)-3-((S)-1-(4-(6-methoxypyridin-3-yl)phenyl)ethyl)-1,3-oxazinan-2-one] | 0.4 | < 100 | 99 | 4000 | 3.8 | 8.8
COc1cc(-c2ccc([C@H](C)N3CC[C@](CCCO)(c4ccc(F)cc4)OC3=O)cc2)ccn1 [EXAMPLE 147, (R)-6-(4-fluorophenyl)-6-(3-hydroxypropyl)-3-((S)-1-(4-(2-methoxypyridin-4-yl)phenyl)ethyl)-1,3-oxazinan-2-one] | 0.9 | < 100 | 98.7 | 4600 | 7.9 | 
Cc1ccc(-c2ccc([C@H](C)N3CC[C@](CCCO)(c4ccc(F)cc4)OC3=O)cc2)c(C)n1 [EXAMPLE 141, (R)-3-((S)-1-(4-(2,6-dimethylpyridin-3-yl)phenyl)ethyl)-6-(4-fluorophenyl)-6-(3-hydroxypropyl)-1,3-oxazinan-2-one] | 1 | < 100 | 102 | > 30000 | 6.6 | 6.3
C[C@@H](c1ccc(-c2cnc(-n3ccnc3)nc2)cc1)N1CC[C@](CC(C)(C)O)(c2ccccc2)OC1=O [EXAMPLE 14, (S)-3-((S)-1-(4-(2-(1H-imidazol-1-yl)pyrimidin-5-yl)phenyl)ethyl)-6-(2-hydroxy-2-methylpropyl)-6-phenyl-1,3-oxazinan-2-one] | 0.9 | < 100 | 93.4 | 20100 | 4.5 | 5.0
C[C@@H](c1ccc(-c2ccncn2)cc1)N1CC[C@](CCCO)(c2ccc(F)cc2)OC1=O [EXAMPLE 128, (R)-6-(4-fluorophenyl)-6-(3-hydroxypropyl)-3-((S)-1-(4-(pyrimidin-4-yl)phenyl)ethyl)-1,3-oxazinan-2-one] | 1.1 | < 100 | 96.5 | 3300 | 8.5 | 
Cc1ccc(-c2ccc([C@H](C)N3CC[C@](CCc4nnc(C)o4)(c4ccccc4)OC3=O)cc2)nn1 [EXAMPLE 12, (R)-6-(2-(5-methyl-1,3,4-oxadiazol-2-yl)ethyl)-3-((S)-1-(4-(6-methylpyridazin-3-yl)phenyl)ethyl)-6-phenyl-1,3-oxazinan-2-one] |  |  |  | 4000 |  | 
Cc1cc(-c2ccc([C@H](C)N3CC[C@](CCN4CCCS4(=O)=O)(c4ccccc4)OC3=O)cc2)ccn1 [EXAMPLE 105, (S)-6-(2-(1,1-dioxo-isothiazolidin-2-yl)ethyl)-3-((S)-1-(4-(2-methylpyridin-4-yl)phenyl)ethyl)-6-phenyl-1,3-oxazinan-2-one] | 19.2 | < 100 | 86.3 | 2500 |  | 
Cc1ncc(-c2ccc([C@H](C)N3CC[C@](CCCO)(c4ccc(F)cc4)OC3=O)cc2)cn1 [EXAMPLE 137, (R)-6-(4-fluorophenyl)-6-(3-hydroxypropyl)-3-((S)-1-(4-(2-methylpyrimidin-5-yl)phenyl)ethyl)-1,3-oxazinan-2-one] |  |  |  | 18400 |  | 
C[C@@H](c1ccc(-c2cccnc2)cc1)N1CC[C@](CCCO)(c2ccccc2)OC1=O [EXAMPLE 36, (R)-6-(3-hydroxypropyl)-6-phenyl-3-((S)-1-(4-(pyridin-3-yl)phenyl)ethyl)-1,3-oxazinan-2-one] |  |  |  | 5200 |  | 
C[C@@H](c1ccc(-c2ccc[n+]([O-])c2)cc1)N1CC[C@](CCCO)(c2ccccc2)OC1=O [EXAMPLE 38, 3-(4-((S)-1-((R)-6-(3-hydroxypropyl)-2-oxo-6-phenyl-1,3-oxazinan-3-yl)ethyl)phenyl)pyridine 1-oxide] |  |  |  | > 30000 |  | 
Cc1cc(-c2ccc([C@H](C)N3CC[C@](CCCN4CCCS4(=O)=O)(c4ccccc4)OC3=O)cc2)ccn1 [EXAMPLE 106, (R)-6-(3-(1,1-dioxo-isothiazolidin-2-yl)propyl)-3-((S)-1-(4-(2-methylpyridin-4-yl)phenyl)ethyl)-6-phenyl-1,3-oxazinan-2-one] | 22.7 | < 100 | 79.6 | 9500 |  | 
Cc1nnc(CC[C@]2(c3ccccc3)CCN([C@@H](C)c3ccc(-c4ccc(C#N)cn4)cc3)C(=O)O2)s1 [EXAMPLE 146, 6-(4-((S)-1-((R)-6-(2-(5-methyl-1,3,4-thiadiazol-2-yl)ethyl)-2-oxo-6-phenyl-1,3-oxazinan-3-yl)ethyl)phenyl)nicotinonitrile] | 17.4 | < 100 | 78.9 | 6100 |  | 
C[C@@H](c1ccc(-c2ccncc2)cc1)N1CC[C@](CCCO)(c2ccccc2)OC1=O [EXAMPLE 35, (R)-6-(3-hydroxypropyl)-6-phenyl-3-((S)-1-(4-(pyridin-4-yl)phenyl)ethyl)-1,3-oxazinan-2-one] |  |  |  | 2200 |  | 
Cc1cc(-c2ccc([C@H](C)N3CC[C@](CCCO)(c4ccccc4)OC3=O)cc2)cc(C)n1 [EXAMPLE 133, (R)-3-((S)-1-(4-(2,6-dimethylpyridin-4-yl)phenyl)ethyl)-6-(3-hydroxypropyl)-6-phenyl-1,3-oxazinan-2-one] |  |  |  | > 30000 |  | 
COc1ccc(-c2ccc([C@H](C)N3CC[C@](CCCO)(c4ccccc4)OC3=O)cc2)cn1 [EXAMPLE 40, (R)-6-(3-hydroxypropyl)-3-((S)-1-(4-(6-methoxypyridin-3-yl)phenyl)ethyl)-6-phenyl-1,3-oxazinan-2-one] |  |  |  | 10000 |  | 
C[C@@H](c1ccc(-c2cccnc2)cc1)N1CC[C@](CCNS(C)(=O)=O)(c2ccccc2)OC1=O [EXAMPLE 55, N-(2-((S)-2-oxo-6-phenyl-3-((S)-1-(4-(pyridin-3-yl)phenyl)ethyl)-1,3-oxazinan-6-yl)ethyl)methanesulfonamide] |  |  | 96.5 | 14100 |  | 
C[C@@H](c1ccc(-c2cncc(F)c2)cc1)N1CC[C@](CCCO)(c2ccccc2)OC1=O [EXAMPLE 49, (R)-3-((S)-1-(4-(5-fluoropyridin-3-yl)phenyl)ethyl)-6-(3-hydroxypropyl)-6-phenyl-1,3-oxazinan-2-one] |  |  |  | 8400 |  | 
Cc1nnc(CC[C@]2(c3ccccc3)CCN([C@@H](C)c3ccc(-c4ccc(C#N)cn4)cc3)C(=O)O2)o1 [EXAMPLE 145, 6-(4-((S)-1-((R)-6-(2-(5-methyl-1,3,4-oxadiazol-2-yl)ethyl)-2-oxo-6-phenyl-1,3-oxazinan-3-yl)ethyl)phenyl)nicotinonitrile] | 32.8 | < 100 | 72.4 | > 30000 |  | 
C[C@@H](c1ccc(-c2cccnc2)cc1)N1CC[C@](CCO)(c2ccccc2)OC1=O [EXAMPLE 34, (S)-6-(2-hydroxyethyl)-6-phenyl-3-((S)-1-(4-(pyridin-3-yl)phenyl)ethyl)-1,3-oxazinan-2-one] |  |  |  | 5100 |  | 
C[C@@H](c1ccc(-c2ccc(F)cn2)cc1)N1CC[C@](CCCO)(c2ccccc2)OC1=O [EXAMPLE 112, (R)-3-((S)-1-(4-(5-fluoropyridin-2-yl)phenyl)ethyl)-6-(3-hydroxpropyl)-6-Phenyl-1,3-oxazinan-2-one] | 0.5 | < 100 | 95.2 | 6100 |  | 
